The record followed here is the Kinase Knowledgebase extract (Sharma et al. 2016).

pIC50: −log10 of the molar value.

This assay deals with PIK3CG (human) (UniProt P48736). Kind of assay: Assessment of PIK3CG Kinase Activity.
Chain of PIK3CG (human) (P48736 whole entry, looked up): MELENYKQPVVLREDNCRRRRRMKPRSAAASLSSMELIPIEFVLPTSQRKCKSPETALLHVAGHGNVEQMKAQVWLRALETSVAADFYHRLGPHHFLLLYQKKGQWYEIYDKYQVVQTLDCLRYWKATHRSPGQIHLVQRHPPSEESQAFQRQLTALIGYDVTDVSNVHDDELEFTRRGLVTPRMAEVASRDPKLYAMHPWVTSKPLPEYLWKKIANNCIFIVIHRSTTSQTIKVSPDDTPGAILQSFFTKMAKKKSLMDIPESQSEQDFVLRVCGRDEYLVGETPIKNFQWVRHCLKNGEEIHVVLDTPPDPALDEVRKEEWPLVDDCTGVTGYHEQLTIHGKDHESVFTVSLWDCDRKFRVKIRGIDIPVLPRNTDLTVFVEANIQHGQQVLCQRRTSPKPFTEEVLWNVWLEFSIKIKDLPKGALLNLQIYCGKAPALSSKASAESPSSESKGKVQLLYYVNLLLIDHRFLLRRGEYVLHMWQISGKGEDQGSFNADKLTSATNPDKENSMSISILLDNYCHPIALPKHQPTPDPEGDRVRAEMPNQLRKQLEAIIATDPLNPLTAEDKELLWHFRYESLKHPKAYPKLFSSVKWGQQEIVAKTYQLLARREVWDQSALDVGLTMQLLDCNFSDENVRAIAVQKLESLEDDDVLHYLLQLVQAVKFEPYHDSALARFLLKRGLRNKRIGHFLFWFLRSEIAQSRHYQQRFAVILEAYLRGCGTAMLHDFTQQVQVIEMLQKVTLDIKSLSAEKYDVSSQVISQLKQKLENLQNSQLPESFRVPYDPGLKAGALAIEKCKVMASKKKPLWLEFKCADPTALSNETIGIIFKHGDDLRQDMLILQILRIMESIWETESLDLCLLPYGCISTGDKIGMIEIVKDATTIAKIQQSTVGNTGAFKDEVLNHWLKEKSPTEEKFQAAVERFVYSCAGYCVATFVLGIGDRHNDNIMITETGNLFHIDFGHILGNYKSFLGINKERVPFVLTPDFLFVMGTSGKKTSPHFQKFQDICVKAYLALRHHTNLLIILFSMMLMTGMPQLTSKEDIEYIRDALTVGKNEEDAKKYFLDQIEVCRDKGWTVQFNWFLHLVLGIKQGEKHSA
As usually defined, the pIC50 is the negative decadic logarithm of the IC50, by convention in mol/L. As for `COc1cc2c(SC3CCCCC3)c(C(=O)Nc3nnn[nH]3)sc2cc1F`, the negative logarithm of the IC50 (pIC50) was 7.92. With `COc1cc2c(Sc3ccc(Cl)cc3)c(C(=O)Nc3nnn[nH]3)sc2cc1F`, the pIC50 was 7.34. Molecule `COc1ccc2sc(C(=O)Nc3nnn[nH]3)c(Sc3ccc(C4CCCCC4)cc3)c2c1F` gave a pIC50 of 6.30. Under `COc1cc2c(Oc3ccccc3)c(C(=O)Nc3nn[nH]n3)sc2cc1F` stands 7.61; under `COc1ccc2c(SC3CCCCC3)c(C(=O)Nc3nnn[nH]3)sc2c1F`, 7.57; under `COc1ccc2sc(C(=O)Nc3nnn[nH]3)c(Sc3ccc(CC(=O)O)cc3)c2c1F`, 4.71. In the case of `COc1cc2c(OC3CCN(C(=O)OC(C)(C)C)CC3)c(C(=O)Nc3nn[nH]n3)sc2cc1F` it was 7.80; in that of `COc1ccc2sc(C(=O)Nc3nnn[nH]3)c(Sc3cccc(C(F)(F)F)c3)c2c1F`, 4.96; in that of `COc1cc2c(O[C@@H]3CCC[C@H](C)C3)c(C(=O)Nc3nn[nH]n3)sc2cc1F`, 8.42. As for `COc1ccc2sc(C(=O)Nc3nnn[nH]3)c(SC(c3ccccc3)C(C)N(C)C(C)=O)c2c1F` (configuration not stated), the pIC50 is 4.70. Under `COc1cc2c(O[C@@H]3CCC[C@@H](C)C3)c(C(=O)Nc3nn[nH]n3)sc2cc1F` stands 7.46; under `COc1cc2c(OCC3(C)CC3)c(C(=O)Nc3nn[nH]n3)sc2cc1F`, 7.85.
